Data set [1] deals with T1, Oryza sativa P5C synthetase 2 (Oryza sativa subsp. japonica, UniProt O04226).
T1 sequence (O04226 1-716): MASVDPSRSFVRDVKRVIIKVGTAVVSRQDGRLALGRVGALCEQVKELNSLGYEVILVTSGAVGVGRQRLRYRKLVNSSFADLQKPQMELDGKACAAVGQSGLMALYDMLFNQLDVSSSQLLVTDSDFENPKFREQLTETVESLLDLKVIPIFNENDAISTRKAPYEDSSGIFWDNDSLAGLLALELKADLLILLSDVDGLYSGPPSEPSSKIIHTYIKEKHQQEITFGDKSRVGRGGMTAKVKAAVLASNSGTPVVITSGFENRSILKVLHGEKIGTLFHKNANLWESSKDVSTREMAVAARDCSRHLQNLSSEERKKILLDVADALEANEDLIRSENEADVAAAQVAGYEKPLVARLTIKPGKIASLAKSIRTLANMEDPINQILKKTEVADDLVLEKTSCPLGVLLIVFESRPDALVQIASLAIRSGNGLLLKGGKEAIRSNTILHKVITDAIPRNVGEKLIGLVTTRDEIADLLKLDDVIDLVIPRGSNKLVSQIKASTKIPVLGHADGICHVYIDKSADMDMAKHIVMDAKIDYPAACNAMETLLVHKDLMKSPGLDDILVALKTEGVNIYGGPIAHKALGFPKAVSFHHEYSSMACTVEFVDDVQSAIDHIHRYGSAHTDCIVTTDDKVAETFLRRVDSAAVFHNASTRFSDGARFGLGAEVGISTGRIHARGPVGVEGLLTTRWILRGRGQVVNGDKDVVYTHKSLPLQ
As to the kind of experiment: NADPH oxidation assay (full forward, physiological reaction of P5C synthetase). The conditions noted are these: for concentrations found inhibitory (exceeding): level above which activity is reduced; for Vmax / Km: named substrate varied, Lineweaver-Burk plot; for Vmax: others fixed at 20mM glutamate, 30°C, pH 7.5; for Km: read-out: KM(app), others saturating (20mM glutamate, 4mM ATP, 0.4mM NADPH), ATP value from concentrations ≤4mM; for effect on P5CS2 activity (in words): increasing concentrations, range tested. As for the experimental part:
The physiological, forward reaction of P5C synthetase was measured by following the glutamate-dependent oxidation of NADPH in the presence of ATP. Aliquots of the purified enzyme preparations (0.5–1μg protein) were incubated in a final volume of 200μl with 20mML-glutamate, 4mM ATP, and 0.4mM NADPH in 50mM Tris-HCl buffer, pH 7.5. When aiming at the evaluation of the effect of chlorides on enzyme activity, Tris-HCl buffer concentration was lowered to 10mM, or replaced with 10mM potassium phosphate buffer, pH 7.5. Incubation proceeded at 30°C for up to 20min. The decrease of absorbance at 340nm was determined at 0.5min intervals against exact blanks in which glutamate had been omitted. Assays were either performed in cuvettes with 0.2 or 1cm pathlength (UVette; Eppendorf, Milan, Italy), or in 96-microwell plates. In the former case, OD340 was determined with a Novaspec plus spectrophotometer (Amersham Biosciences, Milan, Italy) equipped with an UVette adaptor. In the latter case, the plate was equilibrated at 30°C prior to enzyme addition, and absorbance was measured using a Ledetect plate reader (Labexim, Lengau, Austria) equipped with a LED plugin at 340nm. Each sample was carried out in triplicate (technical replications). Each determination was repeated with at least three different enzyme preparations (biological replications). Presented data refer to a single enzyme preparation, and are means±SE over technical replicates. Linear and non-linear regressions of data, as well as kinetic constant values, were computed using Prism 6 for Windows, version 6.03 (GraphPad Software, San Diego, CA, United States).

Data set [2] concerns P5CS from V. aconitifolia. The conditions noted are these: cited from earlier work; for Km: glutamyl kinase assay, ref Zhang et al., 1995.
For the next data set, the system named is P5CS from A. thaliana. Also noted: method as in Parre et al., 2010. The conditions noted are these: half-reaction; ref Parre et al., 2010; cited from earlier work.
Substrate in data set [3]: N[C@@H](CCC(=O)O)C(=O)O
Nature of the data set: purified protein, by the assay type. The conditions noted are these: other: named substrate varied, others saturating (20mM glutamate, 4mM ATP, 0.4mM NADPH); Lineweaver-Burk plot; ATP value from concentrations ≤4mM; pH 7.5; 30.0 °C.

Setting [4] is: read-out: IC50 (concentration inhibiting activity by 50%), 20mM glutamate, 4mM ATP, 0.4mM NADPH, 50mM Tris-HCl pH 7.5, 30°C, non-linear regression.
[5] abbreviates: read-out: IC50 (concentration inhibiting activity by 50%), cations, added as chlorides, 10mM potassium phosphate buffer pH 7.5, Mg++ data relative to equimolar NaCl.
The mark [6] stands for this setting: IC50 (concentration inhibiting activity by 50%), 20mM glutamate, 4mM ATP, 0.4mM NADPH, 50mM Tris-HCl pH 7.5, 30°C, non-linear regression.
[7] abbreviates: IC50 (concentration inhibiting activity by 50%).

Several values for one entry are separate records, joined by “and”; a condition that tells them apart may be missing. Equal entries are not always repeated. Where two headings read alike, the source gives them in different places.

With `Nc1ncnc2c1ncn2[C@@H]1O[C@H](COP(=O)(O)OP(=O)(O)O)[C@@H](O)[C@H]1O` [ADP], in data set [1], the “concentrations found inhibitory (exceeding)” value is reported as over 4 mM. Besides, the IC50 in data set [1] (setting [4]) is 9 mM and 9.06 mM.
What is called Km is the substrate concentration at which the rate is half of its maximum. In the case of `Nc1ncnc2c1ncn2[C@@H]1O[C@H](COP(=O)(O)OP(=O)(O)OP(=O)(O)O)[C@@H](O)[C@H]1O` [ATP], the Km in data set [2] was 2700 µM; in data set [1] it was 760 µM and 764 µM; in the data set with P5CS from A. thaliana, 1500 µM. For the same molecule, in data set [1], the “concentrations found inhibitory (exceeding)” value is given as “exceeding 4 mM”. The Vmax in data set [1] (4mM ATP, 0.4mM NADPH) is 17.96±0.46 nkat (mg protein)^−1. Also, the Ki in data set [1] (read-out: KI value for ATP (substrate inhibition), fit to substrate inhibition model, 20mM glutamate, 0.4mM NADPH) stood at 11.6 ± 5.1 mM.
As to `NC(=O)C[C@H](N)C(=O)O` [Asparagine], the “effect on P5CS2 activity up to 100mM (in words)” value (from here on “effect on P5CS2 activity up”) in data set [1] was “ineffective”.
Turning to `[Ca+2]` [Ca^++], in data set [1], the “effect on P5CS2 activity (in words)” value is recorded as “strong inhibitory effect”. Also, the IC50 in data set [1] (setting [5]) was 4.09 mM.
`O=C(O)[C@H]1CCCN1` [D-proline]: the “effect on P5CS2 activity up” value in data set [1] is listed as “unable to interfere”.
For the molecule `O=P(O)(O)O` [HPO4^−−], the “concentrations found inhibitory (exceeding)” value in data set [1] is listed as “higher than 20 mM”.
`O=C(O)[C@@H]1CC(O)CN1` (stereo partly drawn) [L-4-hydroxyproline] showed an IC50 in data set [1] (setting [6]) of 89.5 mM. Moreover, in data set [1], the “effect on P5CS2 activity (in words)” value is “partial inhibition”.
For the molecule `N[C@@H](CCC(=O)O)C(=O)O` [L-Glu, L-glutamate], the Km in data set [2] is 3600 µM. The Vmax in data set [1] (4mM ATP, 0.4mM NADPH) is listed as 17.38±0.52 nkat (mg protein)^−1.
On to `O=C(O)[C@@H]1CCCN1` [L-proline], for which the IC50 in data set [2] (ref Hu et al., 1992, read-out: concentration giving 50%-inhibition) is 6 mM; in data set [1] (setting [7]), 2.91 mM. The catalytic rate retained result in data set [1] (10mM proline) was “less than 20%”.
For `[Mg+2]` [Mg^++], the inhibition of activity in data set [1] (Mg++ ions at 20mM) is on record as 25%. Further, the “effect on P5CS2 activity (in words)” value in data set [1] was “strong inhibitory effect”. Further, the IC50 in data set [1] (setting [5]) amounted to 34.8 mM.
Turning to `NC(=O)C1=CN([C@@H]2O[C@H](COP(=O)(O)OP(=O)(O)OC[C@H]3O[C@@H](n4cnc5c(N)ncnc54)[C@H](O)[C@@H]3O)[C@@H](O)[C@H]2O)C=CC1` [NADH], the “utilization as electron donor instead of NADPH” value in data set [1] (highest concentration tested 0.5mM) is reported as “No detectable utilization”.
For the molecule `NC(=O)C1=CN([C@@H]2O[C@H](COP(=O)(O)OP(=O)(O)OC[C@H]3O[C@@H](n4cnc5c(N)ncnc54)[C@H](OP(=O)(O)O)[C@@H]3O)[C@@H](O)[C@H]2O)C=CC1` [NADPH], the Vmax in data set [1] (4mM ATP, 0.4mM NADPH) is listed as 18.36±0.64 nkat (mg protein)^−1. In data set [1], the Km turned out to be 45 ± 4 µM.
Consider `NC(=O)c1ccc[n+]([C@@H]2O[C@H](COP(=O)([O-])OP(=O)(O)OC[C@H]3O[C@@H](n4cnc5c(N)ncnc54)[C@H](OP(=O)(O)O)[C@@H]3O)[C@@H](O)[C@H]2O)c1` [NADP^+], for which the IC50 in data set [1] (setting [4]) is 0.4 mM and 0.389 mM.
On to `NC(=O)c1ccc[n+]([C@@H]2O[C@H](COP(=O)([O-])OP(=O)(O)OC[C@H]3O[C@@H](n4cnc5c(N)ncnc54)[C@H](O)[C@@H]3O)[C@@H](O)[C@H]2O)c1` [NAD^+], for which the “effect on P5CS2 activity (in words)” value in data set [1] is reported as “completely ineffective”.
As to `O=C(O)C1CCC=N1` (stereo not drawn) [P5C, δ^1-pyrroline-5-carboxylate], in data set [1], the “effect on P5CS2 activity (in words)” value is listed as “did not exert any significant effect”.
On the same count and under the same terms, in the case of `O=C(O)[C@@H]1CCCCN1` [Pipecolate, pipecolic acid] it was “completely ineffective”.
In data set [1], `N=C(N)NCCC[C@H](N)C(=O)O` [arginine] returned an IC50 of 63.9 mM.
In the case of `O=C(O)C1CCN1` (stereo not drawn) [azetidine-2-carboxylic acid], in data set [1] (setting [6]), the IC50 stood at 11 mM. In addition, the “IC50 relative to proline (fold higher)” value in data set [1] (versus IC50 of L-proline) came to 3.8 fold.
With `Cl` [chloride anions], the “stimulation of P5CS2 activity” value in data set [1] (chlorides in the 10–100mM range) is “up to 40%”. In addition, the “concentration range with stimulatory effect” value in data set [1] (chlorides of various cations) fell in the range of 10 to 100 mM.
Regarding `NC(=O)CC[C@H](N)C(=O)O` [glutamine], in data set [1], the IC50 came out at 89.7 mM and the “concentrations found inhibitory (exceeding)” value is “exceeding 10 mM”.
Regarding `O=P(O)(O)O` [inorganic phosphate], the “effect on P5CS2 activity (in words)” value in data set [1] is “did not exert any significant effect”.
For the molecule `NCCC[C@H](N)C(=O)O` [ornithine], the IC50 in data set [1] (setting [7]) turned out to be 52.6 mM. Besides, the “concentrations found inhibitory (exceeding)” value in data set [1] was “exceeding 2 mM”.
As to `O=P(O)(O)C1CCCN1` (stereo not drawn) [phosphonoproline], the IC50 in data set [1] (setting [6]) worked out at 42.2 mM. The “effect on P5CS2 activity (in words)” value in data set [1] was “partial inhibition”.
`[Na+]` [sodium cations]: the “concentrations found inhibitory (exceeding)” value in data set [1] is “exceeding 100 mM”.
`O=C(O)CCC(=O)C(=O)O` [α-ketoglutarate]: the “effect on P5CS2 activity up” value in data set [1] was “ineffective”.

B1: Oryza sativa P5C synthetase 2 (Oryza sativa Japonica Group) (protein)
chain: MASVDPSRSFVRDVKRVIIKVGTAVVSRQDGRLALGRVGALCEQVKELNSLGYEVILVTSGAVGVGRQRLRYRKLVNSSFADLQKPQMELDGKACAAVGQSGLMALYDMLFNQLDVSSSQLLVTDSDFENPKFREQLTETVESLLDLKVIPIFNENDAISTRKAPYEDSSGIFWDNDSLAGLLALELKADLLILLSDVDGLYSGPPSEPSSKIIHTYIKEKHQQEITFGDKSRVGRGGMTAKVKAAVLASNSGTPVVITSGFENRSILKVLHGEKIGTLFHKNANLWESSKDVSTREMAVAARDCSRHLQNLSSEERKKILLDVADALEANEDLIRSENEADVAAAQVAGYEKPLVARLTIKPGKIASLAKSIRTLANMEDPINQILKKTEVADDLVLEKTSCPLGVLLIVFESRPDALVQIASLAIRSGNGLLLKGGKEAIRSNTILHKVITDAIPRNVGEKLIGLVTTRDEIADLLKLDDVIDLVIPRGSNKLVSQIKASTKIPVLGHADGICHVYIDKSADMDMAKHIVMDAKIDYPAACNAMETLLVHKDLMKSPGLDDILVALKTEGVNIYGGPIAHKALGFPKAVSFHHEYSSMACTVEFVDDVQSAIDHIHRYGSAHTDCIVTTDDKVAETFLRRVDSAAVFHNASTRFSDGARFGLGAEVGISTGRIHARGPVGVEGLLTTRWILRGRGQVVNGDKDVVYTHKSLPLQ
Regarding B1, the Km in data set [3] turned out to be 2690 ± 190 µM.

The values are drawn from article PMC8480329, “Enzymology and Regulation of δ^1-Pyrroline-5-Carboxylate Synthetase 2 From Rice” (Frontiers in Plant Science, 2021).
